# Values quoted from earlier work in patent publication CN104306347A, “一种卡维地洛双层缓释片及其制备方法” (BEIJING D-VENTUREPHARM TECHNOLOGY DEVELOPMENT Co Ltd, priority 2014, dated 2015).
# Columns and labels:
# [1] = in vivo
compound,measurement,setting,value
COc1ccccc1OCCNCC(O)COc1cccc2[nH]c3ccccc3c12 (stereo not shown) [卡维地洛],incidence of adverse reactions,[1],很低
same,risk of postural hypotension when taken with food,[1],可减少引起体位性低血压的危险性
same,tolerability,[1],耐受性良好
same,first-pass effect,after oral administration,有明显的首过效应
same,oral absorption,after oral administration,易于吸收
same,elimination phase half-life (t1/2b),in vivo,7~10 h
same,excretion in urine as unchanged drug,in vivo,< 2%
same,plasma clearance,in vivo,500~700 ml/min
same,steady-state volume of distribution,in vivo,~1.5 L
same,metabolism,metabolites excreted via bile then faeces,代谢完全
same,absolute bioavailability (F),oral,25%~35%
same,absorption when taken with food,taken with food,吸收减慢
same,relative bioavailability when taken with food,taken with food,没有明显影响
